According to patent US6436963B1 (priority 1998, dated 2002):

Key:
Puccinia recondita = experiment: Brown Rust (PUCCRT), protectant spray test on wheat seedlings; format: in vivo; conditions: wheat (cultivar Monon), sprayed to run off at 100 ppm, inoculated after 24 hours
Phytophthora infestans = format: in vivo; conditions: tomatoes (cultivar Rutgers), sprayed to run off at 100 ppm, inoculated after 24 hours
Septoria tritici = conditions: wheat (cultivar Monon), sprayed to run off at 100 ppm, inoculated after 24 hours
Erysiphe graminis = experiment: Powdery Mildew of Wheat (ERYSGT), protectant spray test on wheat seedlings; format: in vivo; conditions: wheat (cultivar Monon), sprayed to run off at 100 ppm, inoculated after 24 hours
Leptosphaeria nodorum = experiment: Glume Blotch of Wheat (LEPTNO), protectant spray test on wheat seedlings; format: in vivo; conditions: wheat (cultivar Monon), sprayed to run off at 100 ppm, inoculated after 24 hours

CNC(=O)C(=NOC)c1ccccc1COc1ncc(C(O)c2ccc(OC(F)(F)F)cc2)cc1Cl (racemic) [Example 16]
PUCCRT control of plant disease (Puccinia recondita): ++ (++ = 75-100% control of plant disease) | PHYTIN control of plant disease (Phytophthora infestans): − (− = 0-24% control of plant disease) | SEPTTR control of plant disease (Septoria tritici): ++ (++ = 75-100% control of plant disease) | ERYSGT control of plant disease (Erysiphe graminis): ++ (++ = 75-100% control of plant disease)

CNC(=O)C(=NOC)c1ccccc1COc1ncc(C(O)c2ccccc2)cc1C (racemic) [Example 13]
PUCCRT control of plant disease (Puccinia recondita): ++ (++ = 75-100% control of plant disease) | PHYTIN control of plant disease (Phytophthora infestans): ++ (++ = 75-100% control of plant disease) | SEPTTR control of plant disease (Septoria tritici): ++ (++ = 75-100% control of plant disease) | ERYSGT control of plant disease (Erysiphe graminis): ++ (++ = 75-100% control of plant disease)

CNC(=O)C(=NOC)c1ccccc1COc1ncc(C(O)c2ccc(F)cc2)cc1C (racemic) [Example 14]
PUCCRT control of plant disease (Puccinia recondita): ++ (++ = 75-100% control of plant disease) | PHYTIN control of plant disease (Phytophthora infestans): ++ (++ = 75-100% control of plant disease) | SEPTTR control of plant disease (Septoria tritici): ++ (++ = 75-100% control of plant disease) | ERYSGT control of plant disease (Erysiphe graminis): ++ (++ = 75-100% control of plant disease)

CCCOC(c1ccccc1)c1cnc(OCc2ccccc2C(=NOC)C(=O)NC)c(Cl)c1 (centres unmarked) [Example 120]
PUCCRT control of plant disease (Puccinia recondita): − (− = 0-24% control of plant disease) | LEPTNO control of plant disease (Leptosphaeria nodorum): + (+ = 25-74% control of plant disease) | PHYTIN control of plant disease (Phytophthora infestans): + (+ = 25-74% control of plant disease) | ERYSGT control of plant disease (Erysiphe graminis): ++ (++ = 75-100% control of plant disease)

CNC(=O)C(=NOC)c1ccccc1COc1ncc(C(O)c2ccc(C)cc2)cc1Cl (centres unmarked) [Example 70]
PUCCRT control of plant disease (Puccinia recondita): ++ (++ = 75-100% control of plant disease) | LEPTNO control of plant disease (Leptosphaeria nodorum): ++ (++ = 75-100% control of plant disease) | PHYTIN control of plant disease (Phytophthora infestans): ++ (++ = 75-100% control of plant disease) | ERYSGT control of plant disease (Erysiphe graminis): ++ (++ = 75-100% control of plant disease)

CNC(=O)C(=NOC)c1ccccc1COc1ncc(C(C)Oc2ccc(OC)cc2)cc1Cl (centres unmarked) [Example 89]
PUCCRT control of plant disease (Puccinia recondita): ++ (++ = 75-100% control of plant disease) | LEPTNO control of plant disease (Leptosphaeria nodorum): ++ (++ = 75-100% control of plant disease) | PHYTIN control of plant disease (Phytophthora infestans): ++ (++ = 75-100% control of plant disease) | ERYSGT control of plant disease (Erysiphe graminis): ++ (++ = 75-100% control of plant disease)

CNC(=O)C(=NOC)c1ccccc1COc1ncc(C(O)c2ccc(Cl)cc2)cc1C (racemic) [Example 15]
PUCCRT control of plant disease (Puccinia recondita): ++ (++ = 75-100% control of plant disease) | PHYTIN control of plant disease (Phytophthora infestans): ++ (++ = 75-100% control of plant disease) | SEPTTR control of plant disease (Septoria tritici): ++ (++ = 75-100% control of plant disease) | ERYSGT control of plant disease (Erysiphe graminis): ++ (++ = 75-100% control of plant disease)

CNC(=O)C(=NOC)c1ccccc1COc1ncc(C(O)c2ccc(C)cc2C)cc1Cl (racemic) [Example 6]
PUCCRT control of plant disease (Puccinia recondita): ++ (++ = 75-100% control of plant disease) | LEPTNO control of plant disease (Leptosphaeria nodorum): − (− = 0-24% control of plant disease) | PHYTIN control of plant disease (Phytophthora infestans): ++ (++ = 75-100% control of plant disease) | ERYSGT control of plant disease (Erysiphe graminis): ++ (++ = 75-100% control of plant disease)

CNC(=O)C(=NOC)c1ccccc1COc1ncc(C(O)c2ccccc2C(F)(F)F)cc1Cl (centres unmarked) [Example 81]
PUCCRT control of plant disease (Puccinia recondita): ++ (++ = 75-100% control of plant disease) | LEPTNO control of plant disease (Leptosphaeria nodorum): + (+ = 25-74% control of plant disease) | PHYTIN control of plant disease (Phytophthora infestans): ++ (++ = 75-100% control of plant disease) | ERYSGT control of plant disease (Erysiphe graminis): ++ (++ = 75-100% control of plant disease)

CNC(=O)C(=NOC)c1ccccc1COc1ncc(C(O)c2cccs2)cc1Cl (racemic) [Example 51]
PUCCRT control of plant disease (Puccinia recondita): ++ (++ = 75-100% control of plant disease) | LEPTNO control of plant disease (Leptosphaeria nodorum): ++ (++ = 75-100% control of plant disease) | PHYTIN control of plant disease (Phytophthora infestans): ++ (++ = 75-100% control of plant disease) | ERYSGT control of plant disease (Erysiphe graminis): ++ (++ = 75-100% control of plant disease)

CCOC(c1ccccc1)c1cnc(OCc2ccccc2C(=NOC)C(=O)NC)c(Cl)c1 (centres unmarked) [Example 69]
PUCCRT control of plant disease (Puccinia recondita): ++ (++ = 75-100% control of plant disease) | LEPTNO control of plant disease (Leptosphaeria nodorum): ++ (++ = 75-100% control of plant disease) | PHYTIN control of plant disease (Phytophthora infestans): − (− = 0-24% control of plant disease) | ERYSGT control of plant disease (Erysiphe graminis): ++ (++ = 75-100% control of plant disease)

CNC(=O)C(=NOC)c1ccccc1COc1ncc(C(OC(C)=O)c2ccccn2)cc1Cl (centres unmarked) [Example 108]
PUCCRT control of plant disease (Puccinia recondita): ++ (++ = 75-100% control of plant disease) | LEPTNO control of plant disease (Leptosphaeria nodorum): ++ (++ = 75-100% control of plant disease) | PHYTIN control of plant disease (Phytophthora infestans): ++ (++ = 75-100% control of plant disease) | ERYSGT control of plant disease (Erysiphe graminis): ++ (++ = 75-100% control of plant disease)

CNC(=O)C(=NOC)c1ccccc1COc1ncc(C(O)c2ccc3c(c2)OCO3)cc1Cl (racemic) [Example 58]
PUCCRT control of plant disease (Puccinia recondita): ++ (++ = 75-100% control of plant disease) | LEPTNO control of plant disease (Leptosphaeria nodorum): ++ (++ = 75-100% control of plant disease) | PHYTIN control of plant disease (Phytophthora infestans): ++ (++ = 75-100% control of plant disease) | ERYSGT control of plant disease (Erysiphe graminis): ++ (++ = 75-100% control of plant disease)

CNC(=O)C(=NOC)c1ccccc1COc1ncc(C(OC(C)=O)c2ccccc2)cc1Cl (racemic) [Example 28]
PUCCRT control of plant disease (Puccinia recondita): ++ (++ = 75-100% control of plant disease) | LEPTNO control of plant disease (Leptosphaeria nodorum): ++ (++ = 75-100% control of plant disease) | PHYTIN control of plant disease (Phytophthora infestans): − (− = 0-24% control of plant disease) | ERYSGT control of plant disease (Erysiphe graminis): − (− = 0-24% control of plant disease)

CNC(=O)C(=NOC)c1ccccc1COc1ncc(C(OC(C)=O)c2ccc(C)cc2)cc1Cl (centres unmarked) [Example 71]
PUCCRT control of plant disease (Puccinia recondita): ++ (++ = 75-100% control of plant disease) | LEPTNO control of plant disease (Leptosphaeria nodorum): ++ (++ = 75-100% control of plant disease) | PHYTIN control of plant disease (Phytophthora infestans): ++ (++ = 75-100% control of plant disease) | ERYSGT control of plant disease (Erysiphe graminis): ++ (++ = 75-100% control of plant disease)

CNC(=O)C(=NOC)c1ccccc1COc1ncc(C(C)(OC)c2ccccc2)cc1Cl (racemic) [Example 35]
PUCCRT control of plant disease (Puccinia recondita): ++ (++ = 75-100% control of plant disease) | LEPTNO control of plant disease (Leptosphaeria nodorum): ++ (++ = 75-100% control of plant disease) | PHYTIN control of plant disease (Phytophthora infestans): − (− = 0-24% control of plant disease) | ERYSGT control of plant disease (Erysiphe graminis): ++ (++ = 75-100% control of plant disease)

CNC(=O)C(=NOC)c1ccccc1COc1cc(OC)c(C(OC)c2cccc(C)c2)cn1 (centres unmarked) [Example 115]
PUCCRT control of plant disease (Puccinia recondita): ++ (++ = 75-100% control of plant disease) | LEPTNO control of plant disease (Leptosphaeria nodorum): ++ (++ = 75-100% control of plant disease) | PHYTIN control of plant disease (Phytophthora infestans): − (− = 0-24% control of plant disease) | ERYSGT control of plant disease (Erysiphe graminis): + (+ = 25-74% control of plant disease)

CNC(=O)C(=NOC)c1ccccc1COc1ncc(C(O)c2ccc(Cl)cc2)cc1Cl (racemic) [Example 9]
PUCCRT control of plant disease (Puccinia recondita): ++ (++ = 75-100% control of plant disease) | LEPTNO control of plant disease (Leptosphaeria nodorum): ++ (++ = 75-100% control of plant disease) | PHYTIN control of plant disease (Phytophthora infestans): ++ (++ = 75-100% control of plant disease) | ERYSGT control of plant disease (Erysiphe graminis): ++ (++ = 75-100% control of plant disease)

CNC(=O)C(=NOC)c1ccccc1COc1ncc(C(OC(C)=O)c2ccc(F)cc2)cc1Cl (racemic) [Example 46]
PUCCRT control of plant disease (Puccinia recondita): − (− = 0-24% control of plant disease) | LEPTNO control of plant disease (Leptosphaeria nodorum): ++ (++ = 75-100% control of plant disease) | PHYTIN control of plant disease (Phytophthora infestans): − (− = 0-24% control of plant disease) | ERYSGT control of plant disease (Erysiphe graminis): ++ (++ = 75-100% control of plant disease)

CNC(=O)C(=NOC)c1ccccc1COc1ncc(C(OC(C)=O)c2cccc(Cl)c2)cc1Cl (centres unmarked) [Example 75]
PUCCRT control of plant disease (Puccinia recondita): ++ (++ = 75-100% control of plant disease) | LEPTNO control of plant disease (Leptosphaeria nodorum): ++ (++ = 75-100% control of plant disease) | PHYTIN control of plant disease (Phytophthora infestans): ++ (++ = 75-100% control of plant disease) | ERYSGT control of plant disease (Erysiphe graminis): ++ (++ = 75-100% control of plant disease)
